Test system: SD rats
Assay: 2-week repeated oral dose toxicity study
Format: in vivo
Settings: for A / G ratio / ALP / ALT / AST / Albumin / B / C ratio / BUN / CHO / CK / CRE / Glucose / K^+ / LDH / Na^+ / T-Bil / TG (triglyceride) / TP: serum
Description: KMS88009 was orally administered once a day by gavage for 14 consecutive days at dose level of 0 (vehicle), 100, 300 and 1,000 mg/kg (n = 5 per group). […] Organs were collected at necropsy; adrenal, kidney, thymus, spleen, heart, lung, liver, testis and brain. The absolute organ weights were measured and the organs-to-body weight ratios were calculated. Blood samples for hematological evaluation were collected from vein of animals under ether anesthesia. Food was withheld overnight before necropsy and blood collections. EDTA was used as an anticoagulant for hematology samples. White blood cell (WBC), red blood cell (RBC), hemoglobin concentration (HGB), hematocrit (HCT), mean corpuscular volume (MCV), mean corpuscular hemoglobin (MCH), mean corpuscular hemoglobin concentration (MCHC), cell hemoglobin concentration mean (CHCM), cell hemoglobin (CH), red cell distribution width (RDW), hemoglobin distribution width (HDW), platelet count (PLT), mean platelet volume (MPV) and reticulocyte were measured by a hematological autoanalyzer (ADVIA 120, Bayer, USA). To get the serum for biochemical analyses, blood samples in a separation tube were centrifuged at 4,000 rpm for 10 min on the day of necropsy. The serum was kept frozen at -70°C until analysis. Sodium citrate was used as an anticoagulant for biochemical analyses. Serum biochemical parameters including aspartate aminotransferase (AST), alanine aminotransferase (ALT), alkaline phosphatase (ALP), total bilirubin (T-Bil), albumin, total protein (TP), albumin/globulin ratio (A/G ratio), glucose, total cholesterol (CHO), triglyceride (TG), lactate dehydrogenase (LDH), creatine kinase (CK), blood urea nitrogen (BUN), creatinine (CRE), blood urea nitrogen/creatinine ratio (B/C ratio), Na^+, K^+ and Cl^- were evaluated by an autoanalyzer (Shimadzu CL-7200, Shimadzu Co., Japan).
All data for single and 2-week repeated oral dose toxicity studies were expressed as the mean ± SD Difference between control and treated groups were evaluated with one-way analysis of variance (ANOVA) followed by Dunnett's test. Value P<0.05 was taken as being statistically significant. Statistical analyses were performed using GraphPad Prism software (USA).

[1] = rats PO 1,000 mg/kg/day, 2 weeks

COc1ccc2cc(C=Cc3ccc(N(C)C)cc3)oc2c1 [KMS88009, 6-methoxy-2-(4-dimethylaminostyryl) benzofuran]
Body weight (rats PO 300 mg/kg/day, day 11): 317.6 ± 17.0 g
Body weight (rats PO 300 mg/kg/day, day 14): 338.5 ± 16.9 g
Abnormal gross findings of necropsy (changed animals / total) [1]: 0 / 5
Basophils [1]: 0.01 ± 0.01 x10^3/μL
Body Weight (at necropsy) [1]: 319.932 ± 12.441 g
Brain weight [1]: 1.922 ± 0.009 g
CH [1]: 20.0 ± 0.5 pg
CHCM [1]: 34.1 ± 0.4 g/dL
Eosinophils [1]: 0.05 ± 0.04 x10^3/μL
HDW [1]: 2.29 ± 0.09 g/dL
Heart weight [1]: 1.074 ± 0.065 g
Hematocrit [1]: 42.1 ± 2.2%
Hemoglobin [1]: 14.0 ± 0.8 g/dL
LUC [1]: 0.06 ± 0.04 x10^3/μL
Left adrenal weight [1]: 0.025 ± 0.004 g
Left kidney weight [1]: 1.342 ± 0.067 g
Left testis weight [1]: 1.366 ± 0.053 g
Liver weight [1]: 11.173 ± 0.202 g
Lung weight [1]: 1.279 ± 0.094 g
Lympocytes [1]: 6.50 ± 3.11 x10^3/μL
MCH [1]: 19.6 ± 0.5 pg
MCHC [1]: 33.3 ± 0.6 g/dL
MCV [1]: 59.0 ± 1.0 fL
MPV [1]: 7.58 ± 0.3 fL
Monocytes [1]: 0.13 ± 0.05 x10^3/μL
Mortality (dead animals / total number of animals) [1]: 0 / 5
Neutrophils [1]: 1.08 ± 0.46 x10^3/μL
Platelet [1]: 1325 ± 141 x10^3/μL
RBC [1]: 7.14 ± 0.27 x10^6/μL
RDW [1]: 12.1 ± 0.2%
Rate body weight / brain [1]: 0.601 ± 0.024%
Rate body weight / heart [1]: 0.336 ± 0.014%
Rate body weight / left adrenal [1]: 0.008 ± 0.001%
Rate body weight / left kidney [1]: 0.420 ± 0.025%
Rate body weight / left testis [1]: 0.427 ± 0.025%
Rate body weight / liver [1]: 3.495 ± 0.093%
Rate body weight / lung [1]: 0.400 ± 0.030%
Rate body weight / right adrenal [1]: 0.008 ± 0.001%
Rate body weight / right kidney [1]: 0.418 ± 0.030%
Rate body weight / right testis [1]: 0.427 ± 0.021%
Rate body weight / spleen [1]: 0.234 ± 0.031%
Rate body weight / thymus [1]: 0.194 ± 0.017%
Retic [1]: 307.4 ± 32.8 x10^3/μL
Right adrenal weight [1]: 0.026 ± 0.003 g
Right kidney weight [1]: 1.334 ± 0.067 g
Right testis weight [1]: 1.365 ± 0.036 g
Spleen weight [1]: 0.749 ± 0.112 g
Symptomatic signs [1]: -
Thymus weight [1]: 0.621 ± 0.073 g
WBC [1]: 7.83 ± 3.64 x10^3/μL
Body weight (rats PO 1,000 mg/kg/day, day 1): 228.3 ± 6.5 g
Body weight (rats PO 1,000 mg/kg/day, day 4): 251.1 ± 8.6 g
Body weight (rats PO 1,000 mg/kg/day, day 8): 296.4 ± 14.2 g
Body weight (rats PO 1,000 mg/kg/day, day 11): 323.0 ± 15.8 g
Body weight (rats PO 1,000 mg/kg/day, day 14): 346.6 ± 16.1 g
A / G ratio (rats PO 100 mg/kg/day, 2 weeks): 0.82 ± 0.08
ALP (rats PO 100 mg/kg/day, 2 weeks): 723.4 ± 40.3 IU/L
ALT (rats PO 100 mg/kg/day, 2 weeks): 37.3 ± 6.2 IU/L
AST (rats PO 100 mg/kg/day, 2 weeks): 152.3 ± 47.1 IU/L
Albumin (rats PO 100 mg/kg/day, 2 weeks): 2.52 ± 0.18 g/dL
B / C ratio (rats PO 100 mg/kg/day, 2 weeks): 28.3 ± 6.1
BUN (rats PO 100 mg/kg/day, 2 weeks): 12.2 ± 1.5 mg/dL
CHO (rats PO 100 mg/kg/day, 2 weeks): 79.4 ± 15.2 mg/dL
CK (rats PO 100 mg/kg/day, 2 weeks): 258.4 ± 54.3 IU/L
CRE (rats PO 100 mg/kg/day, 2 weeks): 0.44 ± 0.05 mg/dL
Glucose (rats PO 100 mg/kg/day, 2 weeks): 159.2 ± 23.5 mg/dL
K^+ (rats PO 100 mg/kg/day, 2 weeks): 4.58 ± 0.43 mmol/L
LDH (rats PO 100 mg/kg/day, 2 weeks): 168.0 ± 36.4 IU/L
Na^+ (rats PO 100 mg/kg/day, 2 weeks): 140.5 ± 1.2 mmol/L
T-Bil (rats PO 100 mg/kg/day, 2 weeks): 0.01 ± 0.01 mg/dL
TG (triglyceride) (rats PO 100 mg/kg/day, 2 weeks): 47.0 ± 29.5 mg/dL
TP (rats PO 100 mg/kg/day, 2 weeks): 5.66 ± 0.17 g/dL
A / G ratio (rats PO 300 mg/kg/day, 2 weeks): 0.77 ± 0.06
ALP (rats PO 300 mg/kg/day, 2 weeks): 755.6 ± 165.7 IU/L
ALT (rats PO 300 mg/kg/day, 2 weeks): 32.9 ± 4.7 IU/L
AST (rats PO 300 mg/kg/day, 2 weeks): 149.2 ± 24.3 IU/L
Albumin (rats PO 300 mg/kg/day, 2 weeks): 2.4 ± 0.00 g/dL
B / C ratio (rats PO 300 mg/kg/day, 2 weeks): 29.6 ± 8.1
BUN (rats PO 300 mg/kg/day, 2 weeks): 12.3 ± 2.8 mg/dL
CHO (rats PO 300 mg/kg/day, 2 weeks): 81.8 ± 11.6 mg/dL
CK (rats PO 300 mg/kg/day, 2 weeks): 222.0 ± 56.7 IU/L
CRE (rats PO 300 mg/kg/day, 2 weeks): 0.42 ± 0.04 mg/dL
Glucose (rats PO 300 mg/kg/day, 2 weeks): 148.0 ± 23.5 mg/dL
K^+ (rats PO 300 mg/kg/day, 2 weeks): 4.73 ± 0.26 mmol/L
LDH (rats PO 300 mg/kg/day, 2 weeks): 127.2 ± 47.0 IU/L
Na^+ (rats PO 300 mg/kg/day, 2 weeks): 139.8 ± 1.8 mmol/L
T-Bil (rats PO 300 mg/kg/day, 2 weeks): 0.02 ± 0.01 mg/dL
TG (triglyceride) (rats PO 300 mg/kg/day, 2 weeks): 29.4 ± 7.2 mg/dL
TP (rats PO 300 mg/kg/day, 2 weeks): 5.56 ± 0.23 g/dL
A / G ratio [1]: 0.76 ± 0.04
ALP [1]: 736.0 ± 109.1 IU/L
ALT [1]: 32.7 ± 7.8 IU/L
AST [1]: 162.0 ± 19.1 IU/L
Albumin [1]: 2.44 ± 0.05 g/dL
B / C ratio [1]: 29.7 ± 2.0
BUN [1]: 11.9 ± 0.8 mg/dL
CHO [1]: 80.4 ± 18.2 mg/dL
CK [1]: 260.2 ± 62.0 IU/L
CRE [1]: 0.4 ± 0.00 mg/dL
Glucose [1]: 141.3 ± 15.6 mg/dL
K^+ [1]: 4.87 ± 0.22 mmol/L
LDH [1]: 126.0 ± 53.9 IU/L
Na^+ [1]: 140.1 ± 1.2 mmol/L
T-Bil [1]: 0.02 ± 0.01 mg/dL
TG (triglyceride) [1]: 30.8 ± 7.7 mg/dL
TP [1]: 5.62 ± 0.19 g/dL
